Results published in patent EP4722365A1, “DOUBLE-STRANDED NUCLEOTIDE COMPOUND FOR METABOLIC DISEASES AND USE THEREOF” (Visirna Therapeutics (Suzhou) Co., Ltd., priority 2023, dated 2024).

How the values were obtained:
DGAT2 [1] = assay: Inhibitory activity of dS319 on the target gene DGAT2 in non-naive Cynomolgus macaque (Example 11); type: in vivo; conditions: for Average inhibition rate, %: 3mpk subcutaneous on days 1 and 29, liver
Method: In-vivo experiment: The in-vivo experimental designs for subcutaneous injection in non-naive Cynomolgus macaque, the administration and the sample collection method were shown in the table below. The day of administration to non-naive Cynomolgus macaque was defined as day 1, the day before it was day 0, the day after it was day 2, and so on. Each group had 2 animals. On days 1 and 29, the animals were injected subcutaneously with the solvent or 0.5 mL/kg of the test compound.
On day 0 (0 h) before administration by SC, and days 7, 29, 56 and 99 after administration, the liver sample was collected. Collection method: The animals was fasted for 12-16 hrs before sample collection. Collection of liver biopsy tissue: The collection process would be operated and recorded according to the SOP of the research institution.

DGAT2 [2] = assay: In-vitro inhibitory activity test on target gene DGAT2 in Huh7 cells (siRNA transfection, mRNA by qPCR); type: cell-based, human; conditions: Table 3.3
Method: The test compound was prepared into a 20 µM mother liquor with PBS.
Huh7 cells. Huh7 cells were cultured in DMEM medium (Gibco article number 11965-092) containing 10% fetal bovine serum (FBS, ExCell Bio article number FSP500), 1% glutamine (GlutaMAX, Gibco article number 35050061), 1% NEAA (gibco article number 11140050), and 1% penicillin-streptomycin (HyClone article number SV30010).
Huh7 cells (2 × 10^4 cells/well) were inoculated into a 96-well plate, and siRNA was transfected into the cells while plating. […] At the same time, a compound-free control group containing RNAiMAX was set up.
24 hrs after transfection, the medium was removed and the cells were collected for RNA extraction. Total RNA was extracted by using RNeasy® 96 Kit (QIAGEN-74182) according to the instructions for use of the kit. cDNA was synthesized by using FastKing RT Kit (with gDNase) (Tiangen-KR116-02) according to the instructions.
The target cDNA was detected by qPCR, and GAPDH cDNA as an internal control was detected in parallel. 8 µL of prepared PCR reaction solution and 2 µL of sample cDNA were added into a 384 well plate. […]
The expression level of the target gene mRNA in each sample was calculated by ΔΔCt relative quantitative method. […]
GraphPad Prism software was used for plotting and analysis, and the inhibition rate was expressed as mean ± SD.

DGAT2 [3] = assay: Inhibition rate on target gene DGAT2 mRNA in primary human hepatocytes (PHHs), free uptake; type: cell-based
Method: The test compound was prepared into a 100 µM/200 µM mother liquor with PBS.
Human hepatocytes (PHHs). PHHs were revived and cultured in InvitroGRO CP medium (BIOIVT article number S0331) containing 10% fetal bovine serum (FBS, Gibco article number 10091148) and 1% penicillin-streptomycin (PS, HyClone article number SV30010).
PHHs (5.4 × 10^4 cells/well) were inoculated into a 96-well plate, and siRNA was added into the cell while plating. The compound entered the cells through free uptake. […] concentration points (100 nM, 20 nM, 4 nM, 0.8 nM, 0.16 nM, 0.032 nM, and 0.0064 nM) were set for siRNA test, and 2 wells were measured in parallel. At the same time, a compound-free control group containing PBS was set up. The cells were cultured in an incubator at 37°C with 5% CO2.
48 hrs later, the medium was removed and the cells were collected for RNA extraction. Total RNA was extracted by using RNeasy® 96 Kit (QIAGEN-74182) according to the instructions for use of the kit. cDNA was synthesized by using HiScript III RT SuperMix for qPCR (+gDNA wiper) (Vazyme article number R323-01) following the instructions.
The target gen cDNA was detected by qPCR, and the internal reference gene GAPDH cDNA was also detected. 8 µL of prepared PCR reaction solution and 2 µL of sample cDNA were added into a 384 well plate. […]

In the case of “dS319: sense (invAb)*acaccauaGfAfCfuauuugcuua[L96]; anti-sense Vpu*Af*a*GfcAfaauagUfcUfaUfgGfuGf* u”, the “Average inhibition rate, %” value (DGAT2 [1]; D7) is reported as 84.9%, the “Average inhibition rate, %” value (DGAT2 [1]; D28) is reported as 93.2% and the “Average inhibition rate, %” value (DGAT2 [1]; D56) is reported as 89.4%. The “Average inhibition rate, %” value (DGAT2 [1]; D99) was 88%, the “inhibitory activity on the target gene DGAT2” value (DGAT2 [1]; conclusion in words, non-naive Cynomolgus macaque) was “long-term inhibitory activity” and the IC50 (DGAT2 [2]) was 0.0163 nM. For the same substance, the IC50 (DGAT2 [3]) was 0.0623 nM.
